These molecules were tested on HEK293-STF3A cells (assay: STF3A assay (STF luciferase reporter in Wnt3A-expressing HEK293 cells)). Settings: Homo sapiens, 24 h, 1 day of treatment.
Format: cell-based
How it was run: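 HEK293 cells carrying the STF reporter and expressing Wnt3A, seeded 2×10^4 per well overnight, then treated 1 day with compound at final 50 μM to 1.5 nM. Luciferase activity read by luminescence after Steady-Glo reagent, 10 min at room temperature.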

**Q.** For CN1C(=O)C2=C(C1=O)N(CC(=O)Nc1ccc(-c3ccncn3)cc1)CCC2 [Compound 73, 2-(6-methyl-5,7-dioxo-2,3,4,5,6,7-hexahydro-1H-pyrrolo[3,4-b]pyridin-1-yl)-N-(4-(pyrimidin-4-yl)phenyl)acetamide], which IC50 is on record?
**A.** Its IC50 is > 10000 nM.

**Q.** For CN1C(=O)C2=C(C1=O)N(CC(=O)Nc1ccc(-c3ncccn3)cc1)CCC2 [Compound 74, 2-(6-methyl-5,7-dioxo-2,3,4,5,6,7-hexahydro-1H-pyrrolo[3,4-b]pyridin-1-yl)-N-(4-(pyrimidin-2-yl)phenyl)acetamide], which IC50 is on record?
**A.** The IC50 was < 1000 nM.

**Q.** Which IC50 does the source give for CN1C(=O)C2=C(C1=O)N(CC(=O)Nc1ccc(-c3cncnc3)cc1)CCC2 [Compound 75, 2-(6-methyl-5,7-dioxo-2,3,4,5,6,7-hexahydro-1H-pyrrolo[3,4-b]pyridin-1-yl)-N-(4-(pyrimidin-5-yl)phenyl)acetamide] here?
**A.** The IC50 was < 100 nM.

**Q.** Which IC50 does the source give for CN1C(=O)C2=C(C1=O)N(CC(=O)Nc1ccc(-c3ccccn3)cc1)CCC2 [Compound 76, 2-(6-methyl-5,7-dioxo-2,3,4,5,6,7-hexahydro-1H-pyrrolo[3,4-b]pyridin-1-yl)-N-(4-(pyridin-2-yl)phenyl)acetamide] here?
**A.** The IC50 was < 100 nM.

**Q.** Which IC50 does the source give for CN1C(=O)C2=C(C1=O)N(CC(=O)Nc1ccc(-c3cccnc3)cc1)CCC2 [Compound 77, 2-(6-methyl-5,7-dioxo-2,3,4,5,6,7-hexahydro-1H-pyrrolo[3,4-b]pyridin-1-yl)-N-(4-(pyridin-3-yl)phenyl)acetamide] here?
**A.** The IC50 was < 100 nM.

**Q.** With Cc1cc(-c2ccccc2)ccc1NC(=O)CN1CCCC2=C1C(=O)N(C)C2=O [Compound 78, 2-(6-methyl-5,7-dioxo-2,3,4,5,6,7-hexahydro-1H-pyrrolo[3,4-b]pyridin-1-yl)-N-(3-methyl-[1,1′-biphenyl]-4-yl)acetamide] as the molecule, how does the IC50 read?
**A.** The IC50 was > 10000 nM.

**Q.** With CN1C(=O)C2=C(C1=O)N(CC(=O)Nc1ccc(-c3ccncc3)cc1)CCC2 [Compound 79, 2-(6-methyl-5,7-dioxo-2,3,4,5,6,7-hexahydro-1H-pyrrolo[3,4-b]pyridin-1-yl)-N-(4-(pyridin-4-yl)phenyl)acetamide] as the molecule, how does the IC50 read?
**A.** The IC50 was < 100 nM.

**Q.** For CN1C(=O)C2=C(C1=O)N(CC(=O)Nc1ccc(-c3ccccc3)c(F)c1)CCC2 [Compound 80, N-(2-fluoro-[1,1′-biphenyl]-4-yl)-2-(6-methyl-5,7-dioxo-2,3,4,5,6,7-hexahydro-1H-pyrrolo[3,4-b]pyridin-1-yl)acetamide], which IC50 is on record?
**A.** The IC50 was < 100 nM.

**Q.** How did the IC50 turn out when COc1cc(-c2ccccc2)ccc1NC(=O)CN1CCCC2=C1C(=O)N(C)C2=O [Compound 81, N-(3-methoxy-[1,1′-biphenyl]-4-yl)-2-(6-methyl-5,7-dioxo-2,3,4,5,6,7-hexahydro-1H-pyrrolo[3,4-b]pyridin-1-yl)acetamide] was run?
**A.** The IC50 was > 10000 nM.

**Q.** Cc1cc(NC(=O)CN2CCCC3=C2C(=O)N(C)C3=O)ccc1-c1ccccc1 [Compound 82, 2-(6-methyl-5,7-dioxo-2,3,4,5,6,7-hexahydro-1H-pyrrolo[3,4-b]pyridin-1-yl)-N-(2-methyl-[1,1′-biphenyl]-4-yl)acetamide] was tested. Which IC50 did it give?
**A.** Its IC50 is < 100 nM.

**Q.** With CN1C(=O)C2=C(C1=O)N(CC(=O)Nc1ccc(-c3ccccc3)cc1F)CCC2 [Compound 83, N-(3-fluorobiphenyl-4-yl)-2-(6-methyl-5,7-dioxo-2,3,4,5,6,7-hexahydro-1H-pyrrolo[3,4-b]pyridin-1-yl)acetamide] as the molecule, how does the IC50 read?
**A.** The IC50 was < 100 nM.

**Q.** CN1C(=O)C2=C(C1=O)N(CC(=O)Nc1ccc(-c3ccccc3F)nn1)CCC2 [Compound 84, N-(6-(2-fluorophenyl)pyridazin-3-yl)-2-(6-methyl-5,7-dioxo-2,3,4,5,6,7-hexahydro-1H-pyrrolo[3,4-b]pyridin-1-yl)acetamide] was tested. Which IC50 did it give?
**A.** The IC50 was < 100 nM.

**Q.** How did the IC50 turn out when Cc1ccc(-c2ccc(NC(=O)CN3CCCC4=C3C(=O)N(C3CC3)C4=O)nc2)cn1 [Compound 85, 2-(6-cyclopropyl-5,7-dioxo-2,3,4,5,6,7-hexahydro-1H-pyrrolo[3,4-b]pyridin-1-yl)-N-(6′-methyl-[3,3′-bipyridin]-6-yl)acetamide] was run?
**A.** Its IC50 is < 100 nM.

From patent publication US9981964B2 (Agency for Science, Technology and Research, priority 2013, dated 2018)
